Measurements as given in paper PMC9827809, “Identification of sitagliptin binding proteins by affinity purification mass spectrometry” (Acta Biochimica et Biophysica Sinica, 2022).

Legend:
Assay type in all cases: binding
[1] = target: T1, lysophospholipase-like 1 (LYPLAL1) (Homo sapiens, UniProt Q5VWZ2); assay: SPR (Biacore 8K, CM5 chip, immobilized protein); also SILAC AP-MS from HEK293T lysate
T1 construct: LYPLAL1 in pDEST15, expressed in E. coli BL21 (DE3)
T1 sequence (Q5VWZ2 2-237): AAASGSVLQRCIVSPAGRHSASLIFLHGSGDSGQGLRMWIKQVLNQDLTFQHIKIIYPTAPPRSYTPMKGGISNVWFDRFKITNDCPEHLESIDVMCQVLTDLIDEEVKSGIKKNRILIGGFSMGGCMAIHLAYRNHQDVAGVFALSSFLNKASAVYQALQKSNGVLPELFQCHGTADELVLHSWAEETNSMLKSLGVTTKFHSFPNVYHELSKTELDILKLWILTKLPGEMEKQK

[2] = target: T2, T-complex protein 1 subunit alpha (TCP1) (Homo sapiens, UniProt P17987, D88A); assay: SPR on mutant TCP1
T2 construct: TCP1 mutant D88A

[3] = target: T3, T-complex protein 1 subunit alpha (TCP1) (Homo sapiens, UniProt P17987); assay: SPR (Biacore 8K, CM5 chip, immobilized protein); also SILAC AP-MS from HEK293T lysate
T3 construct: C-terminal Flag-His6 tag fused TCP1, expressed in E. coli BL21 (DE3)

[4] = target: T4, cell cycle and apoptosis regulator protein 2 (CCAR2) (Homo sapiens, UniProt Q8N163); assay: as above
T4 construct: C-terminal Flag tag fused CCAR2 in pGEX-4T-1 (GST-tagged), expressed in E. coli BL21 (DE3)
T4 sequence (Q8N163 whole entry, the tested form may be a part): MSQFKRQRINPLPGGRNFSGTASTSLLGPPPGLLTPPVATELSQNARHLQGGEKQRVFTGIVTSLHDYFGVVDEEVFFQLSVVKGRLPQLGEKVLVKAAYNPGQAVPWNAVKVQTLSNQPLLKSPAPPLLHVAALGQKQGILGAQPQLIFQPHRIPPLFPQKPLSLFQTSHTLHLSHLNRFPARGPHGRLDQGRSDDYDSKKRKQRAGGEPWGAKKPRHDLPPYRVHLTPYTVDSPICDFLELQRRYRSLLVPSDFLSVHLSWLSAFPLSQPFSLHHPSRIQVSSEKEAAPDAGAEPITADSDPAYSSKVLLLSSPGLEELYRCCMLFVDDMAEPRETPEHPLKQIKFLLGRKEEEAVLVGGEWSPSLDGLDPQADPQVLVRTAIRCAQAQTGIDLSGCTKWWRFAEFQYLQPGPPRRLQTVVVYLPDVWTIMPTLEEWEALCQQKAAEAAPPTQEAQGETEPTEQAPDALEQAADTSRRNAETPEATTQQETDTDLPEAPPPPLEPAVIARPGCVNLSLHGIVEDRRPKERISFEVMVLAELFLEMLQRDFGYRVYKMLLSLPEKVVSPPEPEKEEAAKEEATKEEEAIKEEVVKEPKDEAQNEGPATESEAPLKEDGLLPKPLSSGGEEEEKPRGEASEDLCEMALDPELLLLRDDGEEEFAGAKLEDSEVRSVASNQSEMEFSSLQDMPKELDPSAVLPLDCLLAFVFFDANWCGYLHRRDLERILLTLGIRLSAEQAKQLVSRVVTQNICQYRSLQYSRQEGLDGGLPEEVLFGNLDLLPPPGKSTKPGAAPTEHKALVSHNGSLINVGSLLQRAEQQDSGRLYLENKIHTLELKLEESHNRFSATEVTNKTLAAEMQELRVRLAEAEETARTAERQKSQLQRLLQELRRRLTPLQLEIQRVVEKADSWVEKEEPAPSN

T2 sequence (P17987 whole entry D88A, one chain of several): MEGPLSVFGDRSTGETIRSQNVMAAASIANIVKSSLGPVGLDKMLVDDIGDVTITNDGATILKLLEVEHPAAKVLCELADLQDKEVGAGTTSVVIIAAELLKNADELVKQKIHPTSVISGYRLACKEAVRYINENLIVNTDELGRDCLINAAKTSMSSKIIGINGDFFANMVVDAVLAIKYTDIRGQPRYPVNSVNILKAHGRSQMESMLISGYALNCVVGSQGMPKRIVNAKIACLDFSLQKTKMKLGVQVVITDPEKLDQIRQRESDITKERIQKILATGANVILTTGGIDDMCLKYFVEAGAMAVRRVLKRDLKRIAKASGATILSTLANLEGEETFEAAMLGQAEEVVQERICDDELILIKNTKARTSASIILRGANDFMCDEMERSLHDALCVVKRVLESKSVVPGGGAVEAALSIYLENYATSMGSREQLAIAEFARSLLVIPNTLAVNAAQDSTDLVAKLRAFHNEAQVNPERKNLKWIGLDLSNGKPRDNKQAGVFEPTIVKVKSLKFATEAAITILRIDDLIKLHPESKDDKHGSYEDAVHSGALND
T3 sequence (P17987 whole entry, the tested form may be a part, one chain of several): as the sequence (P17987 whole entry D88A, one chain of several) above, with A88D counted along it

- Kd [1]: 1440 µM
- Kd [2]: 494 µM
- Kd [3]: 50.1 µM
- Kd [4]: 441 µM
Structure (SMILES): O=C(CCCC[C@@H]1SC[C@@H]2NC(=O)N[C@@H]21)NCCOCCOCCOCCOCCOCc1cn([C@@H](CC(=O)N2CCn3c(nnc3C(F)(F)F)C2)Cc2cc(F)c(F)cc2F)nn1 [biotin-PEG5-sitagliptin]
